Experimental findings from patent US6670493B2, “Methods and compositions for treating diseases due to androgen deficiency with glucocorticoid receptor antagonist compounds and new compounds” (Jenapharm GmbH & Co. KG, priority 2001, dated 2003) are described below.

The subject of data set [1] is primary rat Leydig cells. Nature of the data set: Cell damage: activity of mitochondrial succinate dehydrogenase (WST-1 test) in primary rat Leydig cell cultures. Format: cell-based. Here is the method: (§1) Testicular cells were prepared from the testicles of sexually mature, 12-week old, male Wistar rats by means of a collagenase treatment. Leydig cells were obtained from this preparation by a continuous Percoll gradient centrifugation.
(§2) Freshly prepared Leydig cells were sown in microtiter plates in 100 μL of DMEM/F12 with phenol red (20,000) cells/well) with addition of 0.1% BSA, penicillin (100 U/ml) and streptomycin (100 μg/ml). After one hour, the medium was changed with addition of substance. For 18 hours, the Leydig cells were incubated with dexamethasone alone or together with glucocorticoid receptor antagonists (250 μL of DMEM/well with addition of penicillin (100 U/ml) and streptomycin (100 μg/ml)). […] Ethanol was used as solvent for dexamethasone and the glucocorticoid receptor antagonists; the final concentration of the ethanol was not more than 0.2%.
Parallel to the testosterone measurement, cell damage was determined after the 26 hours by measuring the activity of the mitochondrial succinate dehydrogenase (WST-1 test, Böhringer, Mannheim).
On the technique in general: Formazan colour is commonly taken as a measure of viable cells.

For data set [2], the system named is male rats of the CD breeding line. Nature of the data set: Male sexual behavior of rats after chronic dexamethasone treatment with or without RU 38486. Format: in vivo, rat. The settings on record: for Male Sexual Behavior (Copulations in 5 minutes): day 9, average ± standard error. Here is the method:
(§3) Sexually mature, 3-month old male rats of the CD breeding line (Charles River GmbH, Sulzfeld, Germany) were kept in groups of 4 animals under controlled illumination (light:darkness 12:12 hours) with free access to food and drinking water. After a 1-week adaptation, the animals were tested by exposure to ovarectomized, estrogen-treated females for the presence of male sexual behavior (G. Dörner, Hormones and brain differentiation, Elsevier, Amsterdam, 1976, pp. 126-132). […] The animals of the reference group received intraperitoneal injections of dexamethasone (Fortecortin: Merck, Darmstadt, Germany) daily according to the following schedule: 0.5 mg/kg on days 1 to 3, 1 mg/kg on days 4 to 6 and 1.5 mg/kg on days 7 to 9. The control animals were injected with placebo (0.9% sterile NaCl solution. In addition to the dexamethasone treatment, the experimental group received subcutaneous injections of the glucocorticoid receptor antagonist RU 38486 (Sigma, Deisenhofen, Germany) in sesame oil solution in a dose of 10 mg/kg daily according to the schedule given above.
(§4) Male sexual behavior was evaluated on the ninth day by the method given above. After the behavior test, blood samples were taken from the retroorbital plexus for determining the serum testosterone level. The testosterone was determined with a commercial test formulation (IBL, Hamburg, Germany).

Data set [3] deals with primary rat Leydig cells. Nature of the data set: hCG-stimulated testosterone production in primary rat Leydig cells treated with dexamethasone with or without glucocorticoid receptor antagonist (Elisa). Format: cell-based. The settings on record: for Testosterone Production, Average value ± SD (%): hCG alone = 100, basal = 0. On the procedure:
as §1, §2
Aliquots of the supernatant were frozen at −70° C. Testosterone was measured with a commercial Elisa (IBL, Hamburg). The standard curve of testosterone Elisa was then adapted to the cell culture conditions.

Data set [4] concerns male rats of the CD breeding line. Nature of the data set: Serum testosterone level of rats after chronic dexamethasone treatment with or without RU 38486. Format: in vivo, rat. The settings on record: for Serum Testosterone: day 9, average ± standard error. On the procedure:
as §3, §4

Where [5] appears, read: hCG 0.5 ng/ml + 100 nM DEX alone.
Where [6] appears, read: dexamethasone alone i.p. 0.5-1.5 mg/kg daily for 9 days.
The mark [7] stands for this setting: hCG + 100 nM DEX + glucocorticoid receptor antagonist 1 μm.
Where [8] appears, read: hCG 0.5 ng/ml + 100 nM DEX + glucocorticoid receptor antagonist 1 μm.
The mark [9] stands for this setting: dexamethasone i.p. 0.5-1.5 mg/kg daily for 9 days + RU 38486 s.c. 10 mg/kg daily.
Where [10] appears, read: simultaneous administration of dexamethasone and RU 38486.

SMILES strings stand for the structures.

On to `C[C@@H]1C[C@H]2[C@@H]3CCC4=CC(=O)C=C[C@]4(C)[C@@]3(F)[C@@H](O)C[C@]2(C)[C@@]1(O)C(=O)CO` [DEX, dexamethasone], for which the “Effect on mitochondrial succinate dehydrogenase activity (in words)” value in data set [1] (dexamethasone 10^-7 M) is listed as “significant inhibition of the mitochondrial activity”. Besides, the “Succinate Dehydrogenase Activity, Average value ± SD” value in data set [1] (setting [5]) is on record as 0.192 ± 0.036 Absorptions Units. Further, the “Male Sexual Behavior (Copulations in 5 minutes)” value in data set [2] (setting [6]) is on record as 4.0 ± 0.9 Copulations in 5 minutes. For the same compound, in data set [3] (setting [5]), the “Testosterone Production, Average value ± SD” value worked out at 2.00 ± 0.58P ng/ml and the “Testosterone Production, Average value ± SD (%)” value is 44.63 ± 14.08P %. The “Serum Testosterone” value in data set [4] (setting [6]) worked out at 2.3 ± 0.2 ng/mL.

In the case of `COCC1(OC)CCC2C3CCC4=CC(=O)CCC4=C3C(c3ccc(C(=NO)C(F)(F)F)cc3)CC21C` (stereo not drawn) [GRA1, 4-(17β-methoxy-17α-(methoxymethyl)-estra-4,9-diene-3-one-11β-yl]2,2,2-trifluoroacetophenone-1(Z)-oxime], the “Succinate Dehydrogenase Activity, Average value ± SD” value in data set [1] (setting [7]) is on record as 0.289 ± 0.040 Absorptions Units. For the same compound, in data set [3] (setting [8]), the “Testosterone Production, Average value ± SD” value was 3.57 ± 0.83 ng/mL and the “Testosterone Production, Average value ± SD (%)” value is 83.00 ± 20.40%.

Turning to `C[C@]12C[C@H](c3ccc4c(c3)OCO4)C3=C4CCC(=O)C=C4CC[C@H]3[C@@H]1CC[C@@]2(O)C#Cc1ccc(S(C)(=O)=O)cc1` [GRA2], in data set [1] (setting [7]), the “Succinate Dehydrogenase Activity, Average value ± SD” value was 0.363 ± 0.032 Absorptions Units. In data set [3] (setting [8]), the “Testosterone Production, Average value ± SD” value was 3.48 ± 0.64 ng/mL and the “Testosterone Production, Average value ± SD (%)” value came to 80.97 ± 15.47%.

Consider `CC12CC(c3ccc(C=NO)cc3)C3=C4CCC(=O)C=C4CCC3C1CCC2(O)C#Cc1ccc(S(C)(=O)=O)cc1` (stereo not drawn) [GRA3, 4-[17β-hydroxy-17α,21-(4′-methylsulfonylphenyl)-19-nor-3-oxopregna-4,9-diene-20-yn-11β-yl]benzaldehyde-1(E)-oxime], for which the “Succinate Dehydrogenase Activity, Average value ± SD” value in data set [1] (setting [7]) is 0.313 ± 0.018 Absorptions Units. Moreover, in data set [3] (setting [8]), the “Testosterone Production, Average value ± SD” value came out at 4.52 ± 1.01 ng/mL and the “Testosterone Production, Average value ± SD (%)” value stood at 106.30 ± 24.75%.

Consider `CC#C[C@]1(O)CC[C@H]2[C@@H]3CCC4=CC(=O)CCC4=C3[C@@H](c3ccc(N(C)C)cc3)C[C@@]21C` [RU38486, 11β-dimethylaminophenyl-17β-hydroxy-17α-propinyl-estra-4,9-diene-3-one], for which the “Succinate Dehydrogenase Activity, Average value ± SD” value in data set [1] (setting [7]) stood at 0.311 ± 0.031 Absorptions Units. Further, the “Male Sexual Behavior (Copulations in 5 minutes)” value in data set [2] (setting [9]) came to 9.2 ± 1.0 Copulations in 5 minutes. In addition, in data set [2] (setting [10]), the “Effect on male sexual behavior (in words)” value was “retention of male sexual behavior at the level of the placebo group”. In data set [3] (setting [8]), the “Testosterone Production, Average value ± SD” value came out at 4.48 ± 1.14 ng/mL and the “Testosterone Production, Average value ± SD (%)” value is on record as 105.23 ± 27.83%. Moreover, the “Serum Testosterone” value in data set [4] (setting [9]) is 20.2 ± 4.9 ng/mL. Moreover, in data set [4] (setting [10]), the “Effect on serum testosterone concentration (in words)” value is listed as “prevented the reduction in the serum testosterone concentration”.
